Results reported in patent US8895695B2, “Template-fixed beta-hairpin peptidomimetics with CXCR4 antagonizing activity” (priority 2003, dated 2014).
Bridge positions count the residues as written; N and C are the ends. Square brackets hold non-standard residues; d marks the D form. Peptide text beside a SMILES is read from it. 2Nal = N[C@@H](Cc1ccc2ccccc2c1)C(=O)O; Cit = NC(=O)NCCC[C@H](N)C(=O)O

Columns and labels:
[1] = Cytotoxicity assay (MTT reduction), HELA cells; settings: human, HELA cells (Acc57);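 note: MTT reduction read as absorbance at 595 nm, blank-corrected and expressed as percent growth relative to the time-zero cell reading, triplicate wells per concentration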
[2] = tested on: human red blood cells (hRBC); experiment: Hemolysis; format: cell-based
Summary of the method: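 Percent lysis taken as OD540 of peptide-treated sample over OD540 of the water/0.1% Triton X-100 full-lysis control, with PBS giving 0%. Peptides at 100 μM exposed to PBS-washed human RBCs (20% v/v) for 1 hour at 37° C. before centrifugation and 20-fold dilution of supernatant.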

[3] = tested on: 'CCR5' cells / Hut/4-3 cells co-cultivation; experiment: FIGS-Assay; format: cell-based; settings: 200 nM peptide, 48 hours of co-cultivation
Method: The assay was performed according to ref. 5, below. Stock dilutions of the peptides (10 mM) were prepared by dissolving in 10 mM Tris-HCl at room temperature. Stock solutions were kept at +4° C., light protected. Working dilutions were prepared extemporaneously by serial dilution in Phosphate Buffered Saline (PBS) and added in a final volume of 10 μl directly to the cell cultures. After 48 hours of co-cultivation the cultures were rinsed with PBS and then exposed to glutaraldehyde/formaldehyde (0.2%/2%) in PBS for five minutes. For photometric quantification the fixed cultures were subsequently incubated with ortho-nitro-phenyl-galactopyranoside (ONPG) as a β-galactosidase substrate, which was enzymatically converted into the chromophore ortho-nitrophenol (ONP). The read out is directly obtained by measuring optical density of wells at 405 nm in an iEMS 96well-plate reader.
(§1) All fine chemicals came from Merck (Darmstadt, Germany).

CCRF-CEM cells = experiment: Chemotactic assay (cell migration assay); format: cell-based; settings: 1 nM SDF-1, 4 hours
Method: as §1
2.7. Chemotactic Assay (Cell Migration Assay)
The chemotactic response of CCRF-CEM cells to a gradient of stromal cell-derived factor 1α (SDF-1) was measured using disposable assay plates from Neuroprobe (5μ pore size) (Gaithersburg, Md.), according to the manufacturer's directions and references therein [especially ref. 8, below]. Briefly, one 175 cm^2 flask was washed once with Dubecco's phosphate buffered saline (DPBS), and trypsinized for 10 minutes or until cells had lifted. The trypsin was neutralized by the addition of fresh medium containing serum and the cells were pelleted, washed once in DPBS, and resuspended at 1-0.5×10^7 cells/ml in RPMI+0.5% bovine serum albumin (BSA). 45 μl of cell suspension were mixed with 5 μl of 10-fold concentrated PEM peptide diluted in the same assay medium. […] The optical absorbance at 595 nm (ABS595) was read using a Tecan Genios plate reader with Magellan software. The number of cells migrated was determined by comparing ABS595 values against a standard curve generated with a known number of cells in the assay plate and were plotted against SDF-1 concentration to obtain a sigmoidal curve and to determine the IC50 values. The values for IC50 were determined using the Trendline function in Microsoft Excel by fitting a logarithmic curve to the averaged datapoints.

CXCR4 = CXCR4 (Homo sapiens, UniProt P61073); experiment: Ca2+-assay method 1: CXCR4-antagonizing activity; format: cell-based; parameters: expressed in transfected cells; settings: method 1 (Ex. 1-53), CXCR4 transfected pre-B cells, Fura-2; read-out: IC50 (nM) Ca^2+ assay
Sequence of CXCR4 (P61073 whole entry): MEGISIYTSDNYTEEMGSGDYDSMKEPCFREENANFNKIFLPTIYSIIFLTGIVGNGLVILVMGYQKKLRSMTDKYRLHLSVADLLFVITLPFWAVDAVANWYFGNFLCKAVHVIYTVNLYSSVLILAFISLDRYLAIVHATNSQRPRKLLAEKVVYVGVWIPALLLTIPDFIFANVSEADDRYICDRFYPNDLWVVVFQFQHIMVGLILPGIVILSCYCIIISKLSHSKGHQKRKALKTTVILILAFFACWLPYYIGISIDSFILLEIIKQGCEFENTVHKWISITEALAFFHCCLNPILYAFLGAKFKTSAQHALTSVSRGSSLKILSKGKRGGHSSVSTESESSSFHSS
Method: 2.2. Ca^2+-Assay: CXCR4-Antagonizing Activity of the Peptides.
The cells were washed free from Fura-2-AM with a platelet centrifuge and resuspended in 800 μl MSB containing 5 mM D-Glucose. The peptides to be administered were diluted to a 100 fold end concentration in MSB/0.2% PPL, and 8 μl were injected. […] Measurements were done under continuous stirring at 37° C. The signal intension was calibrated with 3 mM CaCl2/[…] lonomycin (maximal fura-2-acetoxymethylester saturation) and 10 μM MnCl2 (minimal Fura-2-acetoxymethylester saturation) and [Ca^2+]i-changes are presented in % fora-2-acetoxymethylester saturation. The rate of [Ca^2+]i-changes was calculated on the basis of the initial [Ca^2+]i-changes and plotted in dependence of chemokine concentration to obtain a sigmoidal curve and to determine the IC50 values.
Osmolarity: 310 mOsm adjusted with NaOH or HCl, adjusted with H2O or PBS.
MSB plus: 5 mM D-glucose in MSB (50 mg/50 mL).
Fura 2-acetoxymethylester: 1 mM stock solution in dimethylsulfoxide.

in vitro = settings: human, HELA cells (Acc57)

Structure (SMILES) | CC50 at 48 h [1] [µM] | Hemolysis at 100 μM [2] [%] | FIGS % inhibition at 200 nM [3] [%] | IC50 (CCRF-CEM cells) [µM] | IC50 (CXCR4) [nM] | CC50 at 48 h (in vitro) [µM]
N=C(N)NCCC[C@@H]1NC(=O)CNC(=O)CNC(=O)[C@H](CCCNC(=N)N)NC(=O)[C@@H]2CSSC[C@H](NC(=O)[C@H](Cc3ccc4ccccc4c3)NC(=O)[C@H](CCCNC(=N)N)NC1=O)C(=O)N[C@@H](Cc1ccc(O)cc1)C(=O)N[C@@H](CCCNC(N)=O)C(=O)N[C@@H](CCCCN)C(=O)N1CCC[C@@H]1C(=O)N1CCC[C@H]1C(=O)N[C@@H](Cc1ccc(O)cc1)C(=O)N[C@@H](CCCNC(=N)N)C(=O)N[C@@H](CCCNC(N)=O)C(=O)N2 [Ex. 52] (cyclo(YR[Cit]CRGGRR[2Nal]CY[Cit]K[dP]P); disulfide 4-11) | 99 | 0 | 95.4 | 2.75 | 3.1 | 
CC(C)[C@@H]1NC(=O)[C@H](CCCNC(N)=O)NC(=O)[C@H](CCCNC(=N)N)NC(=O)[C@H](Cc2ccc(O)cc2)NC(=O)[C@@H]2CCCN2C(=O)[C@H]2CCCN2C(=O)[C@H](CCCCN)NC(=O)[C@H](CCCNC(N)=O)NC(=O)[C@H](Cc2ccc(O)cc2)NC(=O)[C@H](C(C)C)NC(=O)[C@H](Cc2ccc3ccccc3c2)NC(=O)[C@H](CCCNC(=N)N)NC(=O)[C@H](CCCNC(=N)N)NC(=O)[C@H]2CCCN2C(=O)CNC(=O)[C@H](CCCNC(=N)N)NC1=O [compound 45] (cyclo(YR[Cit]VRG[dP]RR[2Nal]VY[Cit]K[dP]P)) |  | 0.4 | 65.1 |  |  | 132
CC(C)[C@@H]1NC(=O)[C@H](CCCNC(=N)N)NC(=O)[C@@H]2CSSC[C@H](NC(=O)[C@H](Cc3ccc4ccccc4c3)NC(=O)[C@H](CCCNC(=N)N)NC(=O)[C@H](CCCNC(=N)N)NC(=O)CNC1=O)C(=O)N[C@@H](Cc1ccc(O)cc1)C(=O)N[C@@H](CCCNC(N)=O)C(=O)N[C@@H](CCCCN)C(=O)N1CCC[C@@H]1C(=O)N1CCC[C@H]1C(=O)N[C@@H](Cc1ccc(O)cc1)C(=O)N[C@@H](CCCNC(=N)N)C(=O)N[C@@H](CCCNC(N)=O)C(=O)N2 [compound 53] (cyclo(YR[Cit]CRVGRR[2Nal]CY[Cit]K[dP]P); disulfide 4-11) | 86 | 0.2 | 91.8 |  | 57.8 | 
